As usually defined, the IC50 is the concentration that inhibits the measured activity by half. A high value points to weaker potency.

Among the data in patent publication US20230331719A1, “Pyrazolopyridine Compounds and Methods of Inhibiting IRE1 Using Same” (OPTIKIRA, LLC, priority 2020, published 2023) are IC50 values, retold here.

Experiment [1] has as its system XBP1. In words: Cellular XBP1 splicing assay (NanoLuc luciferase reporter). The experiment is classed as cell-based. The settings on record: Homo sapiens; ARPE-19 cells stably expressing XBP1-nano-luciferase; thapsigargin 150 nM, 4 hour incubation. On the procedure: ARPE-19 cells stably expressing XBP1 (a.a. 1-376) with nano-luciferase gene sequence linked so it is in frame when XBP1 is spliced, were cultured in F12 media, 10 % FBS, 0.044% sodium bicarbonate, 150 µg/ml hygromycin B and seeded for assays at 5,000 cells in 384 well plates in culture media without hygromycin B and incubated at 37° C./5% CO2. After overnight incubation test compounds were added to the cell plate in a 10-point ½ log dilution series in duplicate (final DMSO concentration 0.117 %). After further incubation of 30 minutes thapsigargin was added (final concentration 150 nM) and then another 4 hour incubation. A NanoLuc luciferase assay (Promega) was used according to the manufacturer’s instructions to detect the luciferase and luminescence measured on a luminometer (EnVision, PerkinElmer). IC50 values calculated by fitting a sigmoidal curve to percent inhibition of control of compound concentration.
A general note: A reporter such as luciferase makes a cellular process visible.

Experiment [2] has as its target IRE1α RNase (Homo sapiens (Human), UniProt O75460). The experiment in a line: Inhibition of RNase activity of IRE1α. The experiment is classed as biochemical. The following applies: 0.325 nM enzyme, 100 nM substrate, 20 minutes at room temperature. The protocol: The RNase reactions were performed in 384 well black ProxiPlate-384 Plus plates (PERKIN Elmer) using 50 mM Tris assay buffer with 0.5 mM MgCl2, 10 mM KCl, 0.03 % Tween, 2 mM DTT and 1% DMSO. Test compounds were prepared on the day of assay and dispensed using D300 digital dispenser as a 10-point ½ log dilution series in duplicate, normalized to a final DMSO concentration of […]. Test compounds were pre-incubated for 30 min at room temperature with IRE1α kinase (E31-11G from Signal Chem) in 2.5 µL of assay buffer. Then 2.5 µl of assay buffer containing substrate (5′ Alexa Fluor 647 - rCrArUrGrUrC rCrGrCrArGrCrGrCrArUrG - Iowa Black RQ quencher 3′) (SEQ ID NO:1) added, giving a final concentration of enzyme of 0.325 nM and of substrate of 100 nM. After 20 minutes incubation at room temperature the reactions were stopped by added 5 µL of 5 M urea, incubated at room temperature for 10 minutes and fluorescence measured on a plate reader (EnVision, PerkinElmer). IC50 values calculated by fitting a sigmoidal curve to percent inhibition of control versus compound concentration.

Experiment [3] has as its target IRE1α kinase (Homo sapiens (Human), UniProt O75460). In words: Inhibition of kinase activity of IRE1α (ADP-Glo). In kind it is biochemical. The settings on record: 5 nM IRE1α kinase, 100 µM ATP, 4 hours at room temperature. The protocol: The kinase reactions were performed in 384 well white ProxiPlate-384 Plus plates (PERKIN Elmer 6008280) using 25 mM MOPS assay buffer with 1 mM dithiothreitol, 25 mM MgCl2, 12.5 mM β-glycerophosphate, 5 mM EGTA, and 50 µg/mL BSA. Test compounds were prepared on the day of assay and dispensed using D300 digital dispenser as a 10-point ½ log dilution series in duplicate, normalized to a final DMSO concentration of 3%. Test compounds were pre-incubated for 30 min at room temperature with 10 nM IRE1α kinase (E31-11G from Signal Chem) in 2.5 µL of assay buffer and the reaction started by addition of 2.5 µL of ATP in assay buffer, to give a final ATP concentration of 100 µm and 5 nM IRE1α kinase. After 4 hours incubation at room temperature the reactions were stopped and the kinase activity determined using the ADP-Glo™ reagent from Promega, according to the manufacturer’s instructions. Luminescence was measured on a luminometer (EnVision, PerkinElmer) and IC50 values calculated by fitting a sigmoidal curve to percent inhibition of control versus Log10 of compound concentration.

Sequence of IRE1α RNase (O75460 468-977): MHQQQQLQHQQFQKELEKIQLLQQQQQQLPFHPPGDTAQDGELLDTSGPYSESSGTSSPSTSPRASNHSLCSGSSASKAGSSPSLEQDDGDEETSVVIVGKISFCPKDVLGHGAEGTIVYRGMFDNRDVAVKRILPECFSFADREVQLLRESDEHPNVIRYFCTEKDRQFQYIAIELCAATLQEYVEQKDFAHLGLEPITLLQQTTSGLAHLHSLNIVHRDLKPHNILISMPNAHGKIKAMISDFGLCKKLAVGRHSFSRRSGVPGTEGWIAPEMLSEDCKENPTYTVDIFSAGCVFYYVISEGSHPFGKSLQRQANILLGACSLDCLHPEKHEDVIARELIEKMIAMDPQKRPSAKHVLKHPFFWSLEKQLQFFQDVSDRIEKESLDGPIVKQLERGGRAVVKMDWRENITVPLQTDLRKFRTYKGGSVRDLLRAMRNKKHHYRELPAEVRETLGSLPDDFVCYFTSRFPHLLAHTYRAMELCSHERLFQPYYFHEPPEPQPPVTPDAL
Sequence of IRE1α kinase (O75460 468-977): as above

Consider `CC(C)n1nc(-c2cc(F)c(NS(=O)(=O)c3cc(Cl)ccc3F)cc2F)c2c(N)ncc([C@H]3CC[C@H](N4CCOCC4)CC3)c21` [Compound A20, N-(4-(4-amino-1-isopropyl-7-((1r,4r)-4-morpholinocyclohexyl)-1H-pyrazolo[4,3-c]pyridin-3-yl)-2,5-difluorophenyl)-5-chloro-2-fluorobenzenesulfonamide], for which the IC50 was found to be 10.3 nM in experiment [1], 3.5 nM in experiment [2] and 2.3 nM in experiment [3].
In the case of `CCOc1ccc(Cl)c(S(=O)(=O)Nc2cc(F)c(-c3nn(C(C)C)c4c3c(N)ncc4[C@H]3CC[C@H](N4CCOCC4)CC3)cc2F)c1` [Compound A17, N-(4-(4-amino-1-isopropyl-7-((1r,4r)-4-morpholinocyclohexyl)-1H-pyrazolo[4,3-c]pyridin-3-yl)-2,5-difluorophenyl)-2-chloro-5-ethoxybenzenesulfonamide], the figures for the IC50 in experiment [1], in experiment [2] and in experiment [3] were 10.6 nM, 4.8 nM and 2.1 nM, respectively.
Regarding `CC(C)n1nc(-c2cc(F)c(NS(=O)(=O)Cc3ccccc3F)cc2F)c2c(N)ncc([C@H]3CC[C@H](N4CCOCC4)CC3)c21` [Compound A11, N-(4-(4-amino-1-isopropyl-7-((1r,4r)-4-morpholinocyclohexyl)-1H-pyrazolo[4,3-c]pyridin-3-yl)-2,5-difluorophenyl)-1-(2-fluorophenyl)methanesulfonamide], the IC50 was found to be 11.6 nM in experiment [1], 4.8 nM in experiment [2] and 2.1 nM in experiment [3].
As to `CC(C)n1nc(-c2cc(F)c(NS(=O)(=O)c3cc(Cl)ccc3Cl)cc2F)c2c(N)ncc([C@H]3CC[C@H](N4CCOCC4)CC3)c21` [Compound A10, N-(4-(4-amino-1-isopropyl-7-((1r,4r)-4-morpholinocyclohexyl)-1H-pyrazolo[4,3-c]pyridin-3-yl)-2,5-difluorophenyl)-2,5-dichlorobenzenesulfonamide], the IC50 in experiment [1] came out at 4.6 nM; in experiment [2] it was 3.3 nM; in experiment [3], 1.6 nM.
For `[2H]C([2H])([2H])Oc1ccc(F)c(S(=O)(=O)Nc2cc(F)c(-c3nn(C(C)C)c4c3c(N)ncc4[C@H]3CC[C@H](N4CCOCC4)CC3)cc2F)c1` [Compound A18, N-(4-(4-amino-1-isopropyl-7-((1r,4r)-4-morpholinocyclohexyl)-1H-pyrazolo[4,3-c]pyridin-3-yl)-2,5-difluorophenyl)-2-fluoro-5-(methoxy-d3)benzenesulfonamide] the same measures were 6.8 nM, 6 nM and 1.9 nM.
With `COC(C)(C)CN[C@H]1CC[C@H](c2cnc(N)c3c(-c4cc(F)c(NS(=O)(=O)c5ccccc5F)cc4F)nn(C(C)C)c32)CC1` [Compound A13, N-(4-(4-amino-1-isopropyl-7-((1r,4r)-4-((2-methoxy-2-methylpropyl)amino)cyclohexyl)-1H-pyrazolo[4,3-c]pyridin-3-yl)-2,5-difluorophenyl)-2-fluorobenzenesulfonamide], the IC50 in experiment [1] amounted to 17 nM; in experiment [2], 15.5 nM; in experiment [3], 3.6 nM.
